Experimental data: patent US9593305B2, “Differentiation of pluripotent stem cells” (Janssen Biotech, Inc., priority 2008, dated 2017)

Test system: H1 human embryonic stem cells
Assay: Definitive endoderm formation with GDF family members, SOX17 and cell number (Example 13)
Type: cell-based
Settings: for SOX17 expression, reagent alone: 20 ng/ml Wnt3a or 2.5 μM compound alone, four days; for SOX17 induction in combination with GDF-8: 2.5 μM compound with 100 ng/ml GDF-8, exceeding activin A/Wnt3a positive control
Method: Stock cultures of human embryonic stem cells (H1 human embryonic stem cell line) were maintained in an undifferentiated, pluripotent state on reduced growth factor […]™ (BD Biosciences; Cat #356231)-coated dishes in MEF conditioned medium with passage on average every four days. Passage was performed by exposing cell cultures to a solution of 1 mg/ml dispase (Invitrogen; Cat #17105-041) for 5 to 7 minutes at 37° C. followed by rinsing the monolayer with MEF conditioned culture medium and gentle scraping to recover cell clusters. Clusters were centrifuged at low speed to collect a cell pellet and remove residual dispase. Cell clusters were split at a 1:3 or 1:4 ratio for routine maintenance culture or a 1:1 ratio for immediate assay. All human ES cell lines were maintained at passage numbers less than 50 and routinely evaluated for normal karyotype and absence of mycoplasma.
Cell clusters were evenly resuspended in MEF conditioned medium supplemented with 8 ng/ml bFGF and seeded onto reduced growth factor […]™-coated 96-well Packard VIEWPLATES (PerkinElmer; Cat #6005182) in volumes of 0.1 ml/well. Daily feeding was conducted by aspirating spent culture medium from each well and replacing with an equal volume of fresh medium. Plates were maintained at 37° C., 5% CO2 throughout the duration of assay.
The assay was initiated by aspirating the culture medium from each well and adding back aliquots (100 μl) of test medium. Test conditions were performed in triplicate over a total four-day assay period, feeding on day 1 and day 3 by aspirating and replacing the medium from each well with fresh test medium. Various members of the GDF family of proteins were obtained for testing as follows: GDF-3 (PeproTech; Cat #120-22); GDF-5 (DePuy Orthopaedics, Inc., a Johnson & Johnson company); GDF-8 (R&D Systems; Cat #788-G8); GDF-10 (R&D Systems; Cat #1543-BP); GDF11 (PeproTech; Cat #120-11); GDF-15 (R&D Systems; Cat #957-GD). On the first day of assay, all wells received an aliquot (80 μl) of basal medium DMEM:F12 medium (Invitrogen; Cat #11330-032) supplemented with 0.5% fetal bovine serum (Hyclone; Cat #SH30070.03). A series of five different control or experimental test samples was created to evaluate activin A or various GDFs in combination with Wnt3a or Compound 34 or Compound 56. These test samples were added in 20 μl aliquots (5× concentrated) to appropriately matched assay wells to yield a final assay volume of 100 μl in each well at the final assay conditions indicated. In the first set of control samples, the following conditions were tested: 1) no additive (i.e. no supplementary growth factor or small molecule); 2) 100 ng/ml activin A (PeproTech; Cat #120-14) in combination with 20 ng/ml Wnt3a (R&D Systems; Cat #1324-WN/CF); 3) 20 ng/ml Wnt3a alone; 4) Compound 34 alone (2.5 μM) without any growth factor or small molecule; 5) Compound 56 alone (2.5 μM) without any growth factor or small molecule. In the second set of test samples, the following conditions were tested in combination with 100 ng/ml GDF3: 1) no additive (i.e. GDF-3 alone); 2) 20 ng/ml Wnt3a; 3) 20 ng/ml Wnt3a with Compound 34 (2.5 μM); 4) Compound 34 (2.5 μM); 5) Compound 56 (2.5 μM); and 6) 20 ng/ml Wnt3a with Compound 56 (2.5 μM). In the third set of test samples, each of the six conditions was combined with 100 ng/ml GDF-5. In the fourth set of test samples, each of the six conditions was combined with 100 ng/ml GDF-8. In the fifth set of test samples, each of the six conditions was combined with 100 ng/ml GDF-10. In the sixth set of test samples, each of the six conditions was combined with 100 ng/ml GDF-11. In the seventh set of test samples, each of the six conditions was combined with 100 ng/ml GDF-15. On the third day of assay, all wells for all test samples, received 100 ng/ml Activin A or 100 ng/ml respective GDF growth factor, without Wnt3a or Compound 34 or Compound 56, diluted into DMEM:F12 medium supplemented with 2% FBS. […]

Structure (SMILES)	SOX17 expression, reagent alone	SOX17 induction in combination with GDF-8
O=C1CCN2CCN(CC2)Cc2cc(Cl)cc(c2)Nc2ncnc(n2)-c2cncc(c2)CCCN1 [Compound 34, 5-Chloro-1,8,10,12,16,22,26,32-octaazapentacyclo[24.2.2.1˜3.7˜0.1˜9,13˜0.1˜14.18˜]tritriaconta-3(33), 4,6,9(32), 10,12,14(31), 15,17-nonaen-23-one]	failed to induce SOX17 expression	robust induction of SOX17
Cc1c[nH]c(-c2cnc(NCCNc3ccc(C#N)cn3)nc2-c2ccc(Cl)cc2Cl)n1 [Compound 56, 6-[(2-{[4-(2,4-Dichlorophenyl)-5-(4-methyl-1H-imidazol-2-yl)pyrimidin-2-yl]amino}ethyl)amino]pyridine-3-carbonitrile]	failed to induce SOX17 expression	robust induction of SOX17
